# Measurements reported in patent publication US20260207551A1, “PHOSPHOGLICERATE DEHYDROGENASE INHIBITORS FOR THE TREATMENT OF FIBROSIS” (CHIESI FARMACEUTICI S.P.A., priority 2022, published 2026).
# Experiments:
# Collagen I = assay: Fibroblast to myofibroblast transition (FMT) in vitro assay: Collagen I detection; type: cell-based; details: Homo sapiens, NHLF, 72 h, read-out: Collagen-I pIC50 (converted)
# synthesis of 13C3-serine = assay: PK/PD model: in vivo [13C6] glucose tracing, inhibition of 13C3-serine synthesis; parameters: species or system mouse male (C57BL/6J); details: 1 h; for decrease of brain serine concentration: not statistically significant
# Protocol: As PHGDH catalyzes the rate-limiting step of glucose-derived serine synthesis, a pharmacokinetic/pharmacodynamic (PK/PD) experiment aimed to assess the inhibition of the synthesis of ^13C3-serine after oral administration of ^13C6-glucose was performed in mouse male (C57BL/6J).
# Animals were fasted overnight before treatment. Following 0.5 h from administration of either Compound 19 at dose of 300 mg/kg or vehicle (0.5% Tween 80, 0.5% Methylcellulose in H2O), ^13C6-glucose was administered by oral gavage (2 g/kg, Merck Life Science Srl). Blood, lung, and brain samples were collected at 1 h, 6.5 h and 24.5 h after treatment with Compound 19 or vehicle.
# The tissue concentration of ^13C3-serine was determined by a liquid chromatography-tandem mass spectrometry (LC/MS/MS) assay. GraphPad Prism (version 8.1.2) was used for drawing graphs and for statistical analysis. Plasma or tissue homogenate samples (tissues were homogenized with a water/acetonitrile 50/50 mixture) were extracted with 3 volumes of acetonitrile. Supernanatant was injected into HPLC system (Agilent 1260 Quaternary Pump equipped with an Agilent 1200 High Performance Autosampler SL; Agilent), using a Kinetex EVO C18 analytical column (100 A, 50×2.1 mm, 2.6 μm; Phenomenex) for the analysis of Compound 19 or an InfinityLab Poroshell 120 Hilic-Z (50×2.1 mm 2.7 μm; Agilent) for the analysis of ^13C3-serine. The mobile phases consisted of 0.1% formic acid in water (solvent A) and 0.1% formic acid in acetonitrile (solvent B); chromatographic separation was performed with gradient elution method (see conditions below): • Compound 19 (0.0-0.5 min, 10% B; 0.5-3.0 min, gradient to 90% B; 3.0-5.0 min. 90% B; 5.0-6.0 min, gradient to 10% B; 6.0-10.0 min, 10% B—flow rate: 0.4 mL/min). • S^13C3-serine (0.0-0.5 min, 95% B; 0.5-4.0 min, gradient to 60% B; 4.0-5.0 min, 60% B; 5.0-6.0 min, gradient to 95% B; 6.0-10.0 min, 95% B—flow rate: 0.4 mL/min).
# Mass spectrometric analysis was performed on a linear ion trap triple quadrupole mass spectrometer (4000 Q TRAP; AB SCIEX) equipped with a turbo spray ion source; mass spectrometer was operated in positive ion mode and quantification was achieved by multiple reaction monitoring (MRM) mode. Peak integration was performed using Analyst (version 1.6.2.). GraphPad Prism (version 8.1.2) was used for drawing graphs and for statistical analysis.
# After 0.5 h from administration of Compound 19a at dose of 3, 10, 30, 100 and 300 mg/kg po, Compound 19 at dose of 300 mg/kg po or vehicle po (0.5% Tween 80, 0.5% Methylcellulose in H2O), mice received ^13C6-glucose by oral gavage (2 g/kg, Merck Life Science Srl). […] Blood was withdrawn by cardiac puncture and collected in heparin tubes.
# αSMA = assay: Phenotypic assay: high content aSMA staining in NHLF cells; type: cell-based, Human; details: NHLF, 72 h incubation
# Protocol: NHLF cells (Lonza #CC2512) were seeded as 2000 cells/well in 384-well plates in MEM medium w/o serine and glycine (Sigma #M2279)+1% pen/strep+5 mM L-glutamine +10% FBS and incubated overnight at 37° C., 5% CO2.
# The next day, cells were washed with PBS and starvation MEM medium w/o serine and glycine (0% FBS) was added and cells were incubated overnight at 37° C., 5% CO2. The day after, cells were pre-incubated with compounds or vehicle (0.3% DMSO) for 1 h. Compounds were tested at 9 consecutive 3-fold dilutions starting from 30 μM. Each compound was tested in duplicate. Cells were further incubated for 72 h at 37° C., 5% CO2, 95% humidity. After 72 h of incubation, αSMA expression was quantified using immunostaining: • Fixation in 4% paraformaldehyde, • Blocking with 3% BSA, 2% FBS, 0.2% Triton-X in PBS, • Primary ab. anti-αSMA (AbCam #ab7817) diluted 500× in blocking buffer • Anti-mouse secondary ab. AF488 (ThermoFisher #A11029) • % of αSMA positive cells was determined by High Content Imaging (Molecular Device), data analysis was performed using MetaXpress software (Molecular Devices) and % of αSMA positive was further used to calculate % of inhibition for tested compounds. Total cell number was determined by Hoechst staining and % of viability over TGFβ stimulated controls was calculated.
# [1] = test system: bleomycin-induced pulmonary fibrosis; assay: Bleomycin-induced pulmonary fibrosis in male mice (Example 6); type: in vivo, Male C57BL6/J mice
# Protocol: The effect of Compound 19a was evaluated in a murine model (C57BL/6J mouse strain) in which fibrosis was induced by a double oropharyngeal (OA) instillation of bleomycin. The Compound 19a was administered under therapeutic regimen for 14 days, starting the treatments at day 7 from the first instillation of Bleomycin OA up to the day 21, considered the endpoint for this model.
# All mice were maintained under pathogen-free conditions and had free access to food and water.
# Lung injury was induced by double OA instillation of bleomycin hydrochloride (BLM, BAXTER, Deerfield, IL, USA) at day 0 and day 4 at the dose of 0.03 U/mouse in […] of saline solution (NaCl 0.9%). Control animals received double OA instillation of […] of saline solution.
# The Compound 19a was orally administered twice daily at the three doses of 3, 30 and 100 mg/Kg 10 mL/Kg, using as vehicle for dissolution the 0.5% Tween 80, 0.5% Methylcellulose in H2O.
# On day 21, the respiratory system mechanics were measured using the FlexiVent System (SCIREQ Inc., Montreal Qc, Canada) (Vanoirbeek et al., 2010).
# Briefly, mice were anesthetized by intraperitoneal injection of ketamine (Anesketin®, Dechra Inc., Handelsweg, NL) and xylazine (Xilagesic®, Calier Inc., Barcelona, ES) solution (100 mg/Kg and 10 mg/Kg, respectively). Once anesthesia was achieved, to analyze forced vital capacity (FVC), anesthetized mice were tracheotomized using an 18-gauge metal cannula, connected via an endotracheal cannula to the FlexiVent and ventilated at a respiratory rate of 150 breaths/min and tidal volume of 10 mL/Kg against a positive end-expiratory pressure of 3 cm H2O to achieve a mean lung volume close to that during spontaneous breathing. To prevent spontaneous breathing mice also received pancuronium bromide at 1 mg/Kg intraperitoneally. FlexiVent software version 8.1 was used to perform the perturbations.
# Immediately after the in-life evaluation, plasma and bronchoalveolar lavage fluid (BALF) samples were collected.
# First, blood was collected by cardiac puncture, and plasma was obtained after centrifugation of blood at 2000×g and 4° C. for 10 minutes.
# Subsequently, the lungs were gently rinsed three times using a tracheal cannula with 0.6 mL of clear BAL solution. The obtained BALF was centrifuged at 1000×g and 4° C. for 10 minutes. The cell-free supernatant was used for biomarkers quantitative determination.
# The following biomarkers were determined in BALF and plasma samples by commercially available ELISA kits: Collagen I (evaluated in BALF), an index of collagen accumulation; matrix metallopeptidase 7 (MMP-7, evaluated in BALF), indicator of aberrant fibrogenesis and ECM remodeling and surfactant protein D (SP-D, evaluated in PLASMA), marker of alveolar epithelial cell damage and dysfunction.
# Lastly, the entire lungs were resected, fixed with formalin and embedded in paraffin. Sections were stained with Masson's trichrome to assess the grade and severity of fibrosis and collagen deposition.
# [2] = Compound 19a 100 mg/Kg bid, Nintedanib esylate 50 mg/Kg bid
smiles,measurement,setting,value
"CC(C)C(C(=O)O)c1ccc(C2(NC(=O)c3cc4c(Cl)c(Cl)ccc4n3C)CCOC2)cc1 (racemic) [Compound 19a, Diasteroisomer 2 of (±)-2-(4-(3-(4,5-Dichloro-1-methyl-1H-indole-2-carboxamido)tetrahydro-furan-3-yl)phenyl)-3-methylbutanoic acid]",IC50,Collagen I,126 nM
same,decrease of brain serine concentration,synthesis of 13C3-serine; 100 mg/kg po,12%
same,decrease of brain serine concentration,synthesis of 13C3-serine; 300 mg/kg po,30%
same,ED80 (inhibition of labelled serine),"synthesis of 13C3-serine; plasma and lung, both tissues, po, estimated",around 30 mg/kg
same,aSMA pIC50,αSMA,6.6
same,fibrotic tissue quantification by automated analysis (FIG. 19B),[1]; 100 mg/Kg,effect comparable to Nintedanib
same,reduction of Collagen I in BALF,[1]; [2],52%
same,reduction of MMP-7 in BALF,[1]; [2],> 100%
same,reduction of SP-D levels in plasma,[1]; [2],74%
same,improvement of FVC decline,"[1]; Compound 19a 100 mg/kg bid, Nintedanib esylate 50 mg/Kg bid, vs BLM/vehicle",77%
same,reduction of Ashcroft score,"[1]; day 21, dose not stated",56%
